Values quoted from earlier work, collected in patent publication US20120129153A1, “Diagnostic method for the prediction of the development and control of the effectiveness of the treatment of oncological illnesses” (priority 2010, published 2012).

Columns and labels:
[1] = system: EBV-associated nasopharyngeal carcinomas; conditions: EBV-associated nasopharyngeal carcinomas in athymous mice
[2] = system: neuroblastomal cells infected by HCMV; conditions: HCMV-infected neuroblastomal cells resistant to cysplatin and etoposide; virus reproduction blocked with Ganciclovir

| SMILES | induction of apoptosis in EBV-transformed epithelial cells [1] | sensitivity of the cells to the action of anti-tumor drugs [2] |
| --- | --- | --- |
| Nc1ccn(C[C@@H](CO)OCP(=O)(O)O)c(=O)n1 [Cidofovir, (S)-1-(3-hydroxy-2-phpsphonyl-methoxypropyl)cytosine] | causes a quick induction of apoptosis |  |
| Nc1nc(O)c2ncn(COC(CO)CO)c2n1 [Ganciclovir] |  | fully restored |
